# Values of other authors as cited in US20100242127A1, “METHODS TO IDENTIFY MODULATORS OF B-RAF PROTEIN KINASE AND THEIR USE FOR THE TREATMENT OF ANXIETY AND DEPRESSION” (HELMHOLTZ ZENTRUM MUNCHEN, priority 2007, published 2010).
# Tested on: Mek
# Details: mouse brain
substance,measurement,setting,value
PD184161,behavioural phenotype after acute blockade of Mek,,depressive-like phenotype
same,effect on behavioural actions of antidepressants,acute,counteract the behavioural actions of antidepressants
